The subject of one test is LN-229. Nature of the test: Antiproliferative activity against human LN229 cells after 72 hrs by MTT assay. The conditions noted are these: LN-229, 72 h. Type of test: functional, cell-based.
Test [1] deals with A2780. Nature of the test: Cell cycle arrest in human A2780 cells assessed as accumulation at G2 phase at 1 uM measured after overnight incubation by propidium iodide staining-based flow cytometry (reference value: 24.9%). The format is functional.
Test [2] concerns A2780. Nature of the test: Cell cycle arrest in human A2780 cells assessed as accumulation at G1 phase at 2 uM measured after overnight incubation by propidium iodide staining-based flow cytometry (reference value: 51.1%). Type of test: functional. For orientation: Flow cytometry measures light scatter and fluorescence of single cells or particles in a stream.
The subject of test [3] is A2780. Nature of the test: Cell cycle arrest in human A2780 cells assessed as accumulation at G2 phase at 2 uM measured after overnight incubation by propidium iodide staining-based flow cytometry (reference value: 24.9%). The format is functional.
In test [4] the test system is HCT-116. Nature of the test: Induction of apoptosis in human HCT116 cells assessed as cell shrinkage at 0.5 to 2 uM measured after overnight incubation by DAPI-staining based microscopy. Type of test: functional.
The subject of test [5] is HCT-116. Nature of the test: Induction of apoptosis in human HCT116 cells assessed as necrotic cells at 1 uM measured after overnight incubation by mitotracker red/alexa fluor-488 Annexin V staining-based flow cytometry (reference value: 2.67%). The format is functional.
Test [6] relates to HCT-116. Nature of the test: Induction of apoptosis in human HCT116 cells assessed as early apoptotic cells at 2 uM measured after overnight incubation by mitotracker red/alexa fluor-488 Annexin V staining-based flow cytometry (reference value: 8.36%). Type of test: functional.
Test [7] concerns A2780. Nature of the test: Induction of apoptosis in human A2780 cells assessed as late apoptotic cells at 2 uM measured after overnight incubation by mitotracker red/alexa fluor-488 Annexin V staining-based flow cytometry (reference value: 0.015%). The format is functional.
Test [8] relates to A2780. Nature of the test: Induction of apoptosis in human A2780 cells assessed as condensation of nuclei at 0.5 to 2 uM measured after overnight incubation by DAPI-staining based microscopy. Type of test: functional, cell-based.

The source made the active and inactive calls. No cut-off for these calls is given here.

Consider `COc1ccc(-c2nc(O)c3c4c(sc3n2)CCCC4)cc1`, for which, in the test with LN-229, the IC50 (commonly the midpoint of a concentration-inhibition curve) stood at 500 nM. In addition, the Activity in the test with A2780 [1] is 57.8%; in the test with A2780 [2], 15.5%; in the test on A2780 [3] it was 63.5%; in the test with HCT-116 [5] it was 1.48%; with HCT-116 [6] it was 25.9%; with A2780 [7] it was 0.051%. For the same compound, the result with HCT-116 [4] and in the test with A2780 [8] was Active.
